Data reported in US9096591B2, “Tetracyclic compounds” (Medivation Technologies, Inc., priority 2007, dated 2015).
Like-named read-outs stand apart in the source and are kept apart here.

Columns and labels:
[1] = target: T1, human recombinant histamine H2 receptor (Homo sapiens, UniProt P25021); assay: Histamine H2 radioligand binding ([125I]Aminopotentidine); settings: for inhibition at 0.1 µM: 0.1 μM compound
T1 construct: expressed in transfected cells; host or cells: CHO-K1 cells
How it was run: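 This radioligand binding assay measured displacement of [125I]Aminopotentidine from recombinant human histamine H2 receptors. Compounds were dissolved in 1% DMSO vehicle. Specific binding was calculated by subtracting non-specific binding, defined using 3 μM Tiotidine, and activity was reported as percentage inhibition of that specific binding.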

[2] = target: T2, human recombinant adrenergic α2B receptor (Homo sapiens, UniProt P18089); assay: Adrenergic α2B radioligand binding ([3H]Rauwolscine); set-up: Inhibition of ligand binding, Adren. alpha2B: concentration or dose not given beside the values; settings: percent inhibition of specific binding
T2 construct: expressed in transfected cells; host or cells: CHO-K1 cells
T2 sequence (P18089 1-450): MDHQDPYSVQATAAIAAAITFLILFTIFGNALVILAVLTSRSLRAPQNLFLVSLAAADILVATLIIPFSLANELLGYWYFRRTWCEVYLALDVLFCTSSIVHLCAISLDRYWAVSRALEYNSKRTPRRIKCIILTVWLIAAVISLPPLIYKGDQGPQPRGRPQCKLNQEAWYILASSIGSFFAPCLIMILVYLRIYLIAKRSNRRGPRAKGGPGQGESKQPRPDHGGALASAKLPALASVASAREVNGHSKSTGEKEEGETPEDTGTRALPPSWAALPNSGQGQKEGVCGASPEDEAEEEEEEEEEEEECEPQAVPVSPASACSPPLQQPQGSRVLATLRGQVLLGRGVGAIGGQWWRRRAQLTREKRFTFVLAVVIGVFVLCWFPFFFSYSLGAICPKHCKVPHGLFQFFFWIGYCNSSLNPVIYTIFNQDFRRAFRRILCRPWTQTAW
Description: To evaluate in radioligand binding assays the activity of compounds of the invention, human recombinant adrenergic α2B receptor expressed in Chinese hamster ovary (CHO-K1) cells (Uhlen S et al. Eur J. Pharmacol. 343(1):93, 1998) in a modified Tris-HCl buffer (50 mM Tris-HCl, pH 7.4, 12.5 mM MgCl2, 1 mM EDTA, 0.2% BSA) was used. Compounds of the invention were incubated with 2.5 nM [^3H]Rauwolscine for 60 minutes at 25° C. Non-specific binding was estimated in the presence of 10 μM Prozosin. Receptor proteins were filtered and washed, the filters were then counted to determine [^3H]Rauwolscine specifically bound. […] Biochemical assay results are presented as the percent inhibition of specific binding in Table 6.

[3] = target: T3, human recombinant serotonin (5-Hydroxytryptamine) 5-HT6 receptor (Homo sapiens, UniProt P50406); assay: Serotonin 5-HT6 radioligand binding ([3H]LSD); set-up: Inhibition of ligand binding, Ser. 5-HT6: concentration or dose not given beside the values; settings: percent inhibition of specific binding
T3 construct: expressed in transfected cells; host or cells: human HeLa cells
Source text: Receptor proteins were filtered and washed, the filters were then counted to determine [3H]LSD specifically bound. […] Biochemical assay results are presented as the percent inhibition of specific binding in Table 6.

[4] = target: T4, human recombinant adrenergic α2A receptor (Homo sapiens, UniProt P08913); assay: Adrenergic α2A radioligand binding ([3H]MK-912); set-up: Inhibition of ligand binding, Adren. alpha2A: concentration or dose not given beside the values; settings: percent inhibition of specific binding
T4 construct: expressed in transfected cells; host or cells: insect Sf9 cells
T4 sequence (P08913 1-465): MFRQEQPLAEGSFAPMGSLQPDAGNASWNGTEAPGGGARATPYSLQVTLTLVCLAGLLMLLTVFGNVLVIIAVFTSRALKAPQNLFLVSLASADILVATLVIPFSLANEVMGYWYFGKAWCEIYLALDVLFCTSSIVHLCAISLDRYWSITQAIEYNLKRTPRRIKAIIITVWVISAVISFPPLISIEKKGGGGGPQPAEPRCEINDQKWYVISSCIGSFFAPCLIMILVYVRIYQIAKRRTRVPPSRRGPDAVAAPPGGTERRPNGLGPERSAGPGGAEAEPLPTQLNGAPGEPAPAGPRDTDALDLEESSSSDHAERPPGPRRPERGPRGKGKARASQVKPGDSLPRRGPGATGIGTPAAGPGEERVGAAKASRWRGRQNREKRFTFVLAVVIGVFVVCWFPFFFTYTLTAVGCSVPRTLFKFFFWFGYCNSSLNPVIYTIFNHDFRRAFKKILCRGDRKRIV
Description: To evaluate in radioligand binding assays the activity of compounds of the invention, human recombinant adrenergic α2A receptor expressed in insect Sf9 cells (Uhlen S et al. J Pharmacol Exp Ther. 271:1558, 1994) in a modified Tris-HCl buffer (50 mM Tris-HCl, pH 7.4, 12.5 mM MgCl2, 2 mM EDTA) was used. Compounds of invention were incubated with 1 nM [^3H]MK-912 for 60 minutes at 25° C. MK912 is (2S-trans)-1,3,4,5′,6,6′,7,12b-octahydro-1′,3′-dimethyl-spiro[2H-benzofuro[2,3-a]quinolizine-2,4′(1′H)-pyrimidin]-2′(3′H)-one hydrochloride Non-specific binding was estimated in the presence of 10 μM WB-4101 (2-(2,6-Dimethoxyphenoxyethyl)aminomethyl-1,4-benzodioxane hydrochloride). Receptor proteins were filtered and washed, the filters were then counted to determine [^3H]MK-912 specifically bound. […] Biochemical assay results are presented as the percent inhibition of specific binding in Table 6.

[5] = target: T5, human recombinant histamine H1 receptor (Homo sapiens, UniProt P35367); assay: Histamine H1 radioligand binding ([3H]Pyrilamine); settings: for inhibition at 0.01 µM: 10 nM (0.01 μM) compound; for inhibition at 0.1 µM: 0.1 μM compound
T5 construct: expressed in transfected cells; host or cells: CHO cells
How it was run: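 CHO-expressed receptor in modified Tris-HCl buffer (50 mM, pH 7.4; 2 mM MgCl2, 100 mM NaCl, 250 mM sucrose); bound ligand measured after filtration and washing.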

[6] = 0.1 nM [125I]Aminopotentidine, read-out: Histamine Binding H2, percent inhibition of specific binding
[7] = 1 μM compound, 0.1 nM [125I]Aminopotentidine, read-out: Histamine Binding H2, percent inhibition of specific binding
[8] = percent inhibition of specific binding, screened at 1 μM, read-out: Inhibition of ligand binding, Hist. H2
[9] = […] [3H]Pyrilamine, read-out: Histamine Binding H1, percent inhibition of specific binding
[10] = 1 μM compound, […] [3H]Pyrilamine, read-out: Histamine Binding H1, percent inhibition of specific binding
[11] = percent inhibition of specific binding, screened at 1 μM, read-out: Inhibition of ligand binding, Hist. H1

T5 sequence (P35367 whole entry): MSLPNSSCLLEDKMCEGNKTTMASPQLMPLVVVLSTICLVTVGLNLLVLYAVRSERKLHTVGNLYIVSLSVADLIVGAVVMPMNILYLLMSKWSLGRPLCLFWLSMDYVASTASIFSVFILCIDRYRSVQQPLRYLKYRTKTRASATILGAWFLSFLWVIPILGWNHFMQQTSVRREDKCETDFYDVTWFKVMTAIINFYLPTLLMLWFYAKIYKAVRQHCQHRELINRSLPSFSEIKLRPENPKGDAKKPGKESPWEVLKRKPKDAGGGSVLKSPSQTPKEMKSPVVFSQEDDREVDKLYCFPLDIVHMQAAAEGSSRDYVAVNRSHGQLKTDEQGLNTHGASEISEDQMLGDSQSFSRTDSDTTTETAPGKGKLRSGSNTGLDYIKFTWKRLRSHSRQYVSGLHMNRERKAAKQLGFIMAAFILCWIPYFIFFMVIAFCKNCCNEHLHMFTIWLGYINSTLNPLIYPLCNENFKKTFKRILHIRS
T1 sequence (P25021 whole entry): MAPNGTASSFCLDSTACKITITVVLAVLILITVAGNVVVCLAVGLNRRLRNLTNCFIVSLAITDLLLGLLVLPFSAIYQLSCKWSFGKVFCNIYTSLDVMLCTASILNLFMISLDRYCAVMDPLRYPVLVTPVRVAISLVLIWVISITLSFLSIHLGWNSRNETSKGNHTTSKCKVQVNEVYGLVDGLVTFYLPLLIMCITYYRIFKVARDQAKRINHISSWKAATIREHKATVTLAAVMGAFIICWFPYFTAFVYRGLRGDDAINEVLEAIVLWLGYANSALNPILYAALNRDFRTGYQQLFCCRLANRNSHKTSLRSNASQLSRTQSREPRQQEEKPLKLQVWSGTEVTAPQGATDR
T3 sequence (P50406 whole entry): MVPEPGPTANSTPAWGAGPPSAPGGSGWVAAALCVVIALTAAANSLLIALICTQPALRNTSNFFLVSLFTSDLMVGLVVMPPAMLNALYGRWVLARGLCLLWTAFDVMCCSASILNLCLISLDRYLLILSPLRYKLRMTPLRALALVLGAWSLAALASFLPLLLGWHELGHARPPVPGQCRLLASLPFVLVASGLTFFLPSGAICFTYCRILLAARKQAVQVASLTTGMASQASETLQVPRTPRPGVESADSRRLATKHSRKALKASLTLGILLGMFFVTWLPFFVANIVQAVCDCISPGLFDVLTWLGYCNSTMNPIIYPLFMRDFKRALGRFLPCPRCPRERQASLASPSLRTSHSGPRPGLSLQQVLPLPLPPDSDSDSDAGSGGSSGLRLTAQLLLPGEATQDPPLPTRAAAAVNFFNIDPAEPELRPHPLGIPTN

Cc1ccc2c(c1)c1c(n2CCc2ccc(F)cc2)CCN(C)C1 [Compound 33, 5-(4-fluorophenethyl)-2,3,4,5-tetrahydro-2,8-dimethyl-1H-pyrido[4,3-b]indole]
inhibition at 0.1 µM [1, 6]: 41% | inhibition at 1 µM [1, 7]: 91% | inhibition at 1 µM [1, 8]: 91% | Inhibition of ligand binding, Adren. alpha2B [2]: 100% | Inhibition of ligand binding, Ser. 5-HT6 [3]: 100% | Inhibition of ligand binding, Adren. alpha2A [4]: 98% | inhibition at 0.01 µM [5, 9]: 46% | inhibition at 0.1 µM [5, 9]: 89% | inhibition at 1 µM [5, 10]: 98% | inhibition at 1 µM [5, 11]: 98%

CN1CCc2c(c3cc(Cl)ccc3n2CCc2ccccc2)C1 [Compound 36, 8-chloro-2,3,4,5-tetrahydro-2-methyl-5-phenethyl-1H-pyrido[4,3-b]indole]
inhibition at 0.1 µM [1, 6]: 41% | inhibition at 1 µM [1, 7]: 92% | inhibition at 1 µM [1, 8]: 92% | Inhibition of ligand binding, Adren. alpha2B [2]: 104% | Inhibition of ligand binding, Ser. 5-HT6 [3]: 104% | Inhibition of ligand binding, Adren. alpha2A [4]: 97% | inhibition at 0.01 µM [5, 9]: 48% | inhibition at 0.1 µM [5, 9]: 91% | inhibition at 1 µM [5, 10]: 99% | inhibition at 1 µM [5, 11]: 99%

CN1CCc2c(c3cc(I)ccc3n2CCc2ccccc2F)C1 [Compound 89, 5-(2-fluorophenethyl)-2,3,4,5-tetrahydro-8-iodo-2-methyl-1H-pyrido[4,3-b]indole]
inhibition at 1 µM [1, 7]: 88% | inhibition at 1 µM [1, 8]: 88% | Inhibition of ligand binding, Adren. alpha2B [2]: 116% | Inhibition of ligand binding, Ser. 5-HT6 [3]: 103% | Inhibition of ligand binding, Adren. alpha2A [4]: 98% | inhibition at 1 µM [5, 10]: 97% | inhibition at 1 µM [5, 11]: 97%

Cc1ccc2c(c1)c1c(n2Cc2ccccc2)CCN(C)C1 [Compound 137, 5-benzyl-2,3,4,5-tetrahydro-2,8-dimethyl-1H-pyrido[4,3-b]indole]
inhibition at 1 µM [1, 7]: 45% | inhibition at 1 µM [1, 8]: 45% | Inhibition of ligand binding, Adren. alpha2B [2]: 3% | Inhibition of ligand binding, Ser. 5-HT6 [3]: 12% | Inhibition of ligand binding, Adren. alpha2A [4]: 15% | inhibition at 1 µM [5, 10]: 11% | inhibition at 1 µM [5, 11]: 11%

CCN1CCc2c(c3cc(C)ccc3n2Cc2ccc(C)nc2)C1 [Compound 138, 2-ethyl-2,3,4,5-tetrahydro-8-methyl-5-((6-methylpyridin-3-yl)methyl)-1H-pyrido[4,3-b]indole]
inhibition at 1 µM [1, 7]: 27% | inhibition at 1 µM [1, 8]: 27% | Inhibition of ligand binding, Adren. alpha2B [2]: 19% | Inhibition of ligand binding, Ser. 5-HT6 [3]: 22% | Inhibition of ligand binding, Adren. alpha2A [4]: 31% | inhibition at 1 µM [5, 10]: 68% | inhibition at 1 µM [5, 11]: 68%

Cc1ccc2c(c1)c1c(n2Cc2ccc(C)nc2)CCN(C)C1 [Compound 139, 2,3,4,5-tetrahydro-2,8-dimethyl-5-((6-methylpyridin-3-yl)methyl)-1H-pyrido[4,3-b]indole]
inhibition at 1 µM [1, 8]: 7% | Inhibition of ligand binding, Adren. alpha2B [2]: 52% | Inhibition of ligand binding, Ser. 5-HT6 [3]: 39% | Inhibition of ligand binding, Adren. alpha2A [4]: 50% | inhibition at 1 µM [5, 10]: 81% | inhibition at 1 µM [5, 11]: 74%

CCN1CCc2c(c3cc(C)ccc3n2Cc2ccccc2)C1 [Compound 140, 5-benzyl-2-ethyl-2,3,4,5-tetrahydro-8-methyl-1H-pyrido[4,3-b]indole]
inhibition at 1 µM [1, 7]: 45% | inhibition at 1 µM [1, 8]: 45% | Inhibition of ligand binding, Adren. alpha2B [2]: −4% | Inhibition of ligand binding, Ser. 5-HT6 [3]: 8% | Inhibition of ligand binding, Adren. alpha2A [4]: 17% | inhibition at 1 µM [5, 10]: 15% | inhibition at 1 µM [5, 11]: 15%

Cc1ccc2c(c1)c1c(n2CCC2CCCCC2)CCN(C)C1 [Compound 163, 5-(2-cyclohexylethyl)-2,3,4,5-tetrahydro-2,8-dimethyl-1H-pyrido[4,3-b]indole]
inhibition at 1 µM [1, 7]: 88% | inhibition at 1 µM [1, 8]: 88% | Inhibition of ligand binding, Adren. alpha2B [2]: 104% | Inhibition of ligand binding, Ser. 5-HT6 [3]: 99% | Inhibition of ligand binding, Adren. alpha2A [4]: 93% | inhibition at 0.01 µM [5, 9]: 59% | inhibition at 0.1 µM [5, 9]: 92% | inhibition at 1 µM [5, 10]: 103% | inhibition at 1 µM [5, 11]: 103%

Cc1ccc2c(c1)c1c(n2CCN2CCCC2)CCN(C)C1 [Compound 221, 2,3,4,5-tetrahydro-2,8-dimethyl-5-(2-(pyrrolidin-1-yl)ethyl)-1H-pyrido[4,3-b]indole]
inhibition at 1 µM [1, 7]: 52% | inhibition at 1 µM [1, 8]: 52% | Inhibition of ligand binding, Adren. alpha2B [2]: 26% | Inhibition of ligand binding, Ser. 5-HT6 [3]: 29% | Inhibition of ligand binding, Adren. alpha2A [4]: 37% | inhibition at 1 µM [5, 10]: 78% | inhibition at 1 µM [5, 11]: 78%

Cc1ccc2c(c1)c1c(n2CCc2ccc(C)nc2)CCNC1 [Compound 230, 2,3,4,5-tetrahydro-8-methyl-5-(2-(6-methylpyridin-3-yl)ethyl)-1H-pyrido[4,3-b]indole]
inhibition at 1 µM [1, 7]: 6% | inhibition at 1 µM [1, 8]: 30% | Inhibition of ligand binding, Adren. alpha2B [2]: 104% | Inhibition of ligand binding, Ser. 5-HT6 [3]: 45% | Inhibition of ligand binding, Adren. alpha2A [4]: 56% | inhibition at 1 µM [5, 10]: 46% | inhibition at 1 µM [5, 11]: 93%

Cc1ccc2c(c1)c1c(n2CCC(=O)N2CCC(N)CC2)CCN(C)C1 [Compound 231, 1-(4-aminopiperidin-1-yl)-3-(1,2,3,4-tetrahydro-2,8-dimethylpyrido[4,3-b]indol-5-yl)propan-1-one]
inhibition at 1 µM [1, 7]: 4% | inhibition at 1 µM [1, 8]: 4% | Inhibition of ligand binding, Adren. alpha2B [2]: 11% | Inhibition of ligand binding, Ser. 5-HT6 [3]: 3% | Inhibition of ligand binding, Adren. alpha2A [4]: 29% | inhibition at 1 µM [5, 10]: -11% | inhibition at 1 µM [5, 11]: -11%

Cc1ccc2c(c1)c1c(n2CCc2ccc(C)nc2)C(Br)C(=O)N(C)C1 (stereo not shown) [Compound 232, 4-bromo-1,2-dihydro-2,8-dimethyl-5-(2-(6-methylpyridin-3-yl)ethyl)-4H-pyrido[4,3-b]indol-3(5H)-one]
inhibition at 1 µM [1, 7]: 3% | inhibition at 1 µM [1, 8]: 3% | Inhibition of ligand binding, Adren. alpha2B [2]: 8% | Inhibition of ligand binding, Ser. 5-HT6 [3]: −7% | Inhibition of ligand binding, Adren. alpha2A [4]: 2% | inhibition at 1 µM [5, 10]: -6% | inhibition at 1 µM [5, 11]: -6%
